Patent publication EP1038864A1, “NOVEL METALLOPROTEINASE INHIBITORS” (FUJI YAKUHIN KOGYO KABUSHIKI KAISHA, priority 1997, dated 1999)
pIC50: −log10 of the molar value. Read-outs that look alike come from different tables or passages of the source.

Tests used:
[1] = target: T1, human fibroblast collagenase (Homo sapiens, UniProt P03956); assay: Assay for inhibition of collagenase (fluorescein-labeled bovine type I collagen substrate); assay type: biochemical; conditions: activated human fibroblast procollagenase, 35°C, 2 hours, pH 7.5; read-out: Inhibition of MMP-1
T1 sequence (P03956 100-469): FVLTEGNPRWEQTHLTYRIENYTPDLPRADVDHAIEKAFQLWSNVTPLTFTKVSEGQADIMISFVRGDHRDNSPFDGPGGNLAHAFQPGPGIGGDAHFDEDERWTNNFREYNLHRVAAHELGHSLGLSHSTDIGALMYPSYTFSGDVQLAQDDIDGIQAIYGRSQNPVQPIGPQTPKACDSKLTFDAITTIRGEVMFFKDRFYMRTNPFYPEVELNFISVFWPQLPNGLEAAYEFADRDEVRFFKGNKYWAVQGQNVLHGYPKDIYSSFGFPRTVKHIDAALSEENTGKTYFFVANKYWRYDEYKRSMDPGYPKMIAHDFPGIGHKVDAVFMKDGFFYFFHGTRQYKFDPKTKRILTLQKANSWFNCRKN
Experimental: (§1) Described below are assays for biological activities of the compounds according to the present invention, formulations, dosage forms and dosage levels thereof, and miscellaneous matters. The efficacy of the compounds represented by the formula (I) according to the present invention as inhibitors of human fibroblast collagenase (metalloproteinase involved in the breakdown of tissues) is determined by a procedure based on the method of Y. Murawaki et al., Journal of Hepatology, 18, p328-334 (1993). The efficacy of the compounds (I) of this invention as inhibitors of human fibroblast stromelysin is determined by a procedure based on the method of S. S. Twining, Anal. Biochem., 143, p30 (1984). The assay results obtained are shown hereinbelow, together with biological examples which illustrate embodiments of the assay protocols.
The efficacy of compounds of the present invention to act as inhibitors of human fibroblast collagenase was determined by the procedure of Y. Murawaki et al. (Journal of Hepatology, 18, p.328-334, 1993), compared with a reference compound.
Procollagenase was activated by incubation with 2 mM 4-aminophenylmercuric acetate (APMA) at 35°C for 2 hours. The inhibition was assayed using, as a substrate, fluorescein-labeled bovine type I collagen. To a solution of the substrate (0.5 mg/ml) in a 50 mM Tris-HCl buffer, pH 7.5, containing 0.4M aqueous sodium chloride and 10 mM aqueous […] was added the activated collagenase. The resultant solution was incubated at 35°C for 2 hours. The digestion of the substrate with the enzyme was stopped by addition of 80 mM o-phenanthroline, followed by addition of a porcine elastase solution formed by dissolving 25 µg/ml porcine elastase in the aforementioned Tris-HCl buffer. The mixture was incubated at 37°C for 10 minutes. To the resulting solution was added 70% ethanol, and a 170 mM Tris-HCl buffer, pH 9.5, containing 0.67M aqueous sodium chloride. Undigested substrates were precipitated by centrifugation at 3000 x g for 20 minutes. The supernatant was collected and the fluorescence was read using an excitation wavelength of 495 nm and an emission wavelength of 520 nm. The inhibitory potency of the compounds was calculated. […] The resulting assay data for representative examples are shown in Table 1, compared with the reference compound. […]

[2] = target: human fibroblast stromelysin (Homo sapiens, UniProt P08254); assay: Assay for inhibition of stromelysin (fluorescein-labeled casein substrate); assay type: biochemical
Experimental: as §1
The efficacy of compounds of the present invention to act as inhibitors of human fibroblast stromelysin was determined by the procedure of Twining (Anal. Biochem., 143, p.30, 1984), compared with a reference compound.
Prostromelysin was activated by incubation with 20 µg/ml human plasmin at 37°C for 2 hours, and the reaction was stopped by addition of 2.8 mg/ml aqueous diisopropyl fluorophosphate. The inhibition was assayed using, as a substrate, fluorescein-labeled casein. To a solution of the substrate (1 mg/ml) in a 50 mM Tris-HCl buffer, pH 7.8, containing 10mM aqueous calcium chloride was added the activated stromelysin. The resultant solution was incubated at 37°C for 2 hours. The digestion of the substrate with the enzyme was stopped by addition of 5% trichloroacetic acid. Undigested substrates were precipitated by centrifugation at 3000 x g for 20 minutes. The supernatant was collected, followd by additon of a 0.5M Tris-HCl buffer, pH 8.5. The fluorescence was read using an excitation wavelength of 495 nm and an emission wavelength of 520 nm. The inhibitory potency of the compounds was calculated. […] The resulting assay data for representative examples are shown in Table 2, compared with the reference compound.

TNF-α Convertase = TNF-α Convertase (Homo sapiens, UniProt P78536); assay: Assay for inhibition of TNF-α production in LPS-stimulated, PMA-differentiated U937 cells
Experimental: Human monocytic leukemia cell line U937 (human histiocytic lymphoma cell line U937) cells were cultured in RPMI 1640 (Nissui Pharmaceutical Co., Ltd., Japan) supplemented with 5% fetal calf serum (FCS; IBL, Japan) in an incubator at 37°C under 5% CO2, then transferred to multiplates at a density of 1 x 10^6 cells/1 ml/well, and incubated overnight in the presence of 10^-7 M phorbol 12-myristate 13-acetate (Wako Pure Chemical Industries, Ltd., Japan) to form differentiated macrophage-like cells. To the resultant cells was added E. coli O127:B8 lipopolysaccaride (LPS, 0.1 µg/ml; Sigma) alone or along with each compound of the present invention, and the treated cells were then incubated for 6 hours in an incubator under 5% CO2 at 37°C. After the incubation, the cultures were collected and centrifuged at 3000 rpm for 10 minutes to give supernatants which were diluted with purified water and then assayed using a TNF-α assay kit, Genzyme (Table 3).

[3] = plasmin-activated human fibroblast prostromelysin, 37°C, 2 hours, pH 7.8, read-out: Inhibition of MMP-3

human fibroblast stromelysin, sequence (P08254 100-477): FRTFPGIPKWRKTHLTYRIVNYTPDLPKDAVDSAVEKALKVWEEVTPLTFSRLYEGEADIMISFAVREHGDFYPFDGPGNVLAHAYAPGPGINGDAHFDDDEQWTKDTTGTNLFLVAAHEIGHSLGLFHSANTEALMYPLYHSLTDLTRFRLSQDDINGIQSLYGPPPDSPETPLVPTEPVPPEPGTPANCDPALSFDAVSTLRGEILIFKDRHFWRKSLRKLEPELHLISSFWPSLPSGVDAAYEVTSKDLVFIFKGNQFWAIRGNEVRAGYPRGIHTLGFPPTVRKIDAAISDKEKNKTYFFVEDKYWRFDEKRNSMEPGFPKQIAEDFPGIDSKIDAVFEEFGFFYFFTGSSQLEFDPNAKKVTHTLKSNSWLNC
TNF-α Convertase, sequence (P78536 215-824): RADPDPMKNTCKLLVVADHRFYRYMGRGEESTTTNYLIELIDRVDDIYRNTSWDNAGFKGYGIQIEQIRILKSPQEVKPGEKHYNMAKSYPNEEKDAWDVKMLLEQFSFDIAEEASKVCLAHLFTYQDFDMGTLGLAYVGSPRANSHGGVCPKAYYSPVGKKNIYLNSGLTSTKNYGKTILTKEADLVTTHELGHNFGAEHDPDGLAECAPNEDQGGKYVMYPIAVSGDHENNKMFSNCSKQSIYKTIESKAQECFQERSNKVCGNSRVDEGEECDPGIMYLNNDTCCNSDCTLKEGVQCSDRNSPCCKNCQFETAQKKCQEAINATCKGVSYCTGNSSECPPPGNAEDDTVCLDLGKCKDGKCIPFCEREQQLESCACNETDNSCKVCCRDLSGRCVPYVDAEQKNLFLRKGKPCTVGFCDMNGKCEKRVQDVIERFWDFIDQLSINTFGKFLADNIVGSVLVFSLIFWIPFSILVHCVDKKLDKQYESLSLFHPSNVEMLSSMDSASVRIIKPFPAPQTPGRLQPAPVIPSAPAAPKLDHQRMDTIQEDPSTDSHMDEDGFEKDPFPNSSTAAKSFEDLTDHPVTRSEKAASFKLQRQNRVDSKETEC

pIC50 [1] | pIC50 (TNF-α Convertase) | Structure (SMILES) | also measured
8.30 | – | CNC(=O)[C@@H](NC(=O)[C@H](CC(C)C)C(CCCc1ccc(CN)cc1)C(=O)NO)C(C)(C)C (single isomer, unassigned) [Compound No. 79, N^a-[4-(Hydroxyamino)-2(R)-isobutyl-3(R or S)-[3-(p-aminomethylphenyl)propyl]succinyl]-L-tert-leucine N-methylamide· 1 acetate] | –
– | 6.47 | CNC(=O)[C@H](CCCNC(=N)N)NC(=O)[C@H](CC(C)C)C(CCOc1ccccc1)C(=O)NO (single isomer, unassigned) [Compound No. 54, N^a-[4-(Hydroxyamino)-2(R)-isobutyl-3(R or S)-(2-phenoxyethyl)succinyl]-L-arginine N-methylamide· 1 acetate] | pIC50 [2]: 8.00
8.00 | – | CNC(=O)C(CCCNC(=N)N)NC(=O)C(CC(C)C)C(C)C(=O)NO [Compound No. 25, N^a-[4-(Hydroxyamino)-2(R)-isobutyl-3(RS)-methylsuccinyl]-L-arginine N-methylamide · 1 acetate] | –
– | 6.68 | CNC(=O)C(Cc1ccc(CN)cc1)NC(=O)C(CC(C)C)C(CCCc1ccccc1)C(=O)NO (single isomer, unassigned) [Compound No. 47, N^a-[4-(Hydroxyamino)-2(R)-isobutyl-3(R or S)-(3-phenylpropyl)succinyl]-4'-aminomethyl-L-phenylalanine N-methylamide · 1 acetate] | –
8.40 | – | CNC(=O)C(CCCCN)NC(=O)C(CC(C)C)C(CCCN1C(=O)N(C)C(C)(C)C1=O)C(=O)NO (single isomer, unassigned) [Compound No. 82, N^a-[4-(Hydroxyamino)-2(R)-isobutyl-3(R or S)-(3-(3,4,4-trimethyl-2,5-dioxo-imidazolidin-1-yl)propyl]succinyl]-L-lysine N-methylamide] | –
– | – | CNC(=O)[C@H](CCCCN)NC(=O)[C@H](CC(C)C)C(CCOCC(C)C)C(=O)NO (single isomer, unassigned) [Compound No. 70, N^a-[4-(Hydroxyamino)-2(R)-isobutyl-3(R or S)-(2-isobutyloxyethyl)succinyl]-L-lysine N-methylamide· 1 acetate] | pIC50 [2]: 7.55
7.96 | – | CNC(=O)[C@H](CCCCN)NC(=O)[C@H](CC(C)C)C(CCCN1CCOCC1)C(=O)NO (single isomer, unassigned) [Compound No. 73, N^a-[4-(Hydroxyamino)-2(R)-isobutyl-3(R or S)-[3-(morpholin-4-yl)propyl]succinyl]-L-lysine N-methylamide· 1 acetate] | –
8.00 | – | CNC(=O)C(CCNC(=N)N)NC(=O)C(CC(C)C)C(C)C(=O)NO (single isomer, unassigned) [Compound No. 28, N^4-[3-Guanidino-1(S)-methylcarbamoylpropyl]-N^1-hydroxy-3(R)-isobutyl-2(R or S)-methylsuccinamide · 1 acetate] | –
– | – | CNC(=O)C(CCNC(=N)N)NC(=O)C(CC(C)C)C(CCCc1ccccc1)C(=O)NO [Compound No. 26, N^4-[3-Guanidino-1(S)-methylcarbamoylpropyl]-N^1-hydroxy-3(R)-isobutyl-2-(RS)-(3-phenylpropyl)succinamide · 1 acetate] | pIC50 [2]: 7.40
– | 6.55 | CNC(=O)C(CCCNC(=N)N)NC(=O)C(CC(C)C)C(CCCC1CCCCC1)C(=O)NO (single isomer, unassigned) [Compound No. 55, N^a-[4-(Hydroxyamino)-2(R)-isobutyl-3(R or S)-(3-cyclohexylpropyl)succinyl]-L-arginine N-methylamide · 1 acetate] | –
– | 6.03 | CNC(=O)[C@H](C)NC(=O)[C@H](CC(C)C)C(CCCc1ccc(CN)cc1)C(=O)NO (stereo partly drawn) [Compound No. 58, N^a-[4-(Hydroxyamino)-2(R)-isobutyl-3(RS)-[3-(p-aminomethylphenyl)propyl]succinyl]-L-alanine N-methylamide · 1 acetate] | –
7.74 | – | CNC(=O)[C@H](CCN)NC(=O)[C@H](CC(C)C)C(CCCc1ccc(CN)cc1)C(=O)NO (single isomer, unassigned) [Compound No. 78, N^4-[3-Amino-1(S)-methylcarbamoylpropyl)-N^1-hydroxy-2(R or S)-[3-(p-aminomethylphenyl)propyl]-3(R)-isobutylsuccinamide· 2 acetate] | –
– | – | CNC(=O)[C@H](CCCNC(=N)N)NC(=O)[C@H](CC(C)C)C(Cc1ccc(CNS(C)(=O)=O)cc1)C(=O)NO (single isomer, unassigned) [Compound No. 52, N^a-[4-(Hydroxyamino)-2(R)-isobutyl-3(R or S)-(p-methanesulfonamidomethylbenzyl)succinyl]-L-arginine N-methylamide· 1 acetate] | pIC50 [2]: 7.64
– | – | CC(C)CC(C(=O)NO)C(CC(C)C)C(=O)NC(Cc1ccc(CN)cc1)C(=O)NCCO [Compound No. 35, N^a-[4-(Hydroxyamino)-2(R),3(RS)-diisobutylsuccinyl]-4'-aminomethyl-L-phenylalanine N-(2-hydroxyethyl)amide · 1 acetate] | pIC50 [2, 3]: 7.72
– | 5.54 | CNC(=O)[C@H](C)NC(=O)[C@H](CC(C)C)C(CCCCCNC(C)=N)C(=O)NO (single isomer, unassigned) [Compound No. 62, N^a-[4-(Hydroxyamino)-2(R)-isobutyl-3(R or S)-[5-(acetimidoylimino)pentyl]succinyl]-L-alanine N-methylamide] | –
– | 6.28 | CNC(=O)[C@H](CCCCN)NC(=O)[C@H](CC(C)C)C(CCCc1ccc(C(=O)O)cc1)C(=O)NO (single isomer, unassigned) [Compound No. 67, N^a-[4-(Hydroxyamino)-2(R)-isobutyl-3(R or S)-[3-(p-carboxyphenyl)propyl]succinyl]-L-lysine N-methylamide] | –
– | 6.38 | CNC(=O)[C@H](CCCCN)NC(=O)[C@H](CC(C)C)C(CCCc1ccc(C(=O)OC)cc1)C(=O)NO (single isomer, unassigned) [Compound No. 65, N^a-[4-(Hydroxyamino)-2(R)-isobutyl-3(R or S)-[3-(p-methoxycarbonylphenyl)propyl]succinyl]-L-lysine N-methylamide· 1 acetate] | –
– | – | CC(C)CC(C(=O)NC(CCCN)C(=O)NC1CC1)C(C)C(=O)NO (single isomer, unassigned) [Compound No. 37, N^a-[4-(Hydroxyamino)-2(R)-isobutyl-3(R or S)-methylsuccinyl]-L-ornithine N-cyclopropylamide · 1 acetate] | pIC50 [2, 3]: 7.30
– | – | CNC(=O)[C@H](CCCCN)NC(=O)[C@H](CC(C)C)C(CCCCCCCCO)C(=O)NO (single isomer, unassigned) [Compound No. 68, N^a-[4-(Hydroxyamino)-2(R)-isobutyl-3(R or S)-(8-hydroxyoctyl)-succinyl]-L-lysine N-methylamide· 1 acetate] | pIC50 [2]: 7.85
– | 5.72 | CC(C)CC(C(=O)NO)C(CC(C)C)C(=O)NC(Cc1ccc(CN)cc1)C(=O)NCCN(C)C (single isomer, unassigned) [Compound No. 89, N^a-[4-(Hydroxyamino)-2(R),3(R or S)-diisobutylsuccinyl]-4'-aminomethyl-L-phenylalanine N-(2-N',N'-dimethylaminoethyl)amide· 2 acetate] | –
